Reference: patent US20240252496A1, “SELECTIVE HYPOTHALAMUS PERMEABLE HDAC6 INHIBITORS FORTREATMENT OF LEPTIN-RESISTANT OBESITY” (The Children’s Medical Center Corporation, priority 2022, published 2024)
Entries after “also recorded” stand apart in the source; their conditions may differ.

How the values were obtained:
[1] = tested on: HDAC6; assay: Ac-tubulin immunoblotting in HEK293 cells; type: cell-based
[2] = tested on: STAT3^Tyr705 phosphorylation; assay: Leptin-stimulated hypothalamic STAT3 phosphorylation in DIO mice; type: in vivo; settings: 45 min after leptin 1 mg/kg i.p., ACY775 10, ACY738 50, ricolinostat 50 mg/kg/day i.p.
Method: DIO mice were pretreated with ACY775 (10 mg/kg/day, i.p.) or vehicle for 3 days, which was followed by a last injection of ACY775 (or vehicle) in the morning of fourth day. 6 hours later mice were injected with saline or leptin (1 mg/kg, i.p.) and hypothalamus were extracted after 45 minutes following the leptin injection. Representative immunoblots for STAT3^Tyr705 phosphorylation and total STAT3 from the hypothalamus. Quantification of the ratio of p-STAT3^Tyr705 to total-STAT3 signal in the immunoblots. The results were reproduced in three independent experiments. The results were analyzed hourly.
DIO mice were pretreated with ACY775 (10 mg/kg/day, i.p.) or vehicle for 3 days, which was followed by a last injection of ACY775 (or vehicle) in the morning of fourth day. 6 hours later mice were injected with saline or leptin (1 mg/kg, i.p.) and the hypothalamus were extracted after 45 minutes following the leptin injection.
6 hours later mice were injected with saline or leptin (1 mg/kg, i.p.) and hypothalamus were extracted after 45 minutes following the leptin injection. Immunoblots for STAT3^Tyr705 phosphorylation and total STAT3 from the hypothalamus were made to quantify the ratio of p-STAT3^Tyr705 to total-STAT3 signal in the immunoblots. The results were reproduced in two independent experiments.
DIO mice were pretreated with ricolinostat (50 mg/kg/day, i.p.) or vehicle 3 days, which was followed by a last injection of ricolinostat (or vehicle) in the morning of fourth day. 6 hours later mice were injected with saline or leptin (1 mg/kg, i.p.) and the hypothalamus were extracted after 45 minutes following the leptin injection. Immunoblots were performed for STAT3^Tyr705 phosphorylation and total STAT3 from the hypothalamus. The ratio of p-STAT3^Tyr705 to total STAT3 signal in the immunoblots was quantified.

[3] = tested on: DIO mice; assay: Chronic treatment of DIO mice (body weight, food intake, leptin, DEXA); type: in vivo; settings: for body weight after treatment / decrease in body weight: 3 weeks; for body weight after treatment / decrease in body weight / body weight before treatment / daily food intake under treatment: ACY775 10, ACY738 50 mg/kg/day i.p.; for fat mass (DEXA) / fat percentage (DEXA) / lean mass (DEXA) / circulating/serum leptin levels: after 3 weeks; for circulating/serum leptin levels: ACY775 10, ACY738 50, ricolinostat 50 mg/kg i.p.; for food intake and total body fat mass: high fat diet induced mice, summary
Method: DIO mice were treated with ACY775 (10 mg/kg/day, i.p.) for 3 weeks. Daily body weight (g) of DIO mice treated with vehicle (n=17) or ACY775 (n=17) during 3 weeks of treatment was determined. Daily food intake (g) during 3 weeks of vehicle or ACY775 treatment was assessed. 24 hours' food intake per mouse during the first week of vehicle or ACY775 treatment was determined. Serum leptin (ng/ml) levels after 3 weeks of vehicle (n=24) or ACY775 (n=24) treatment was assessed. Lean mass (g), fat mass (g) and fat percentage (%) after 3 weeks of vehicle (n=17) or ACY775 (n=17) treatment measured by Dual-energy X-ray absorptiometry (DEXA) scan. DEXA scans were performed in two different cohorts. Glucose tolerance test (GTT) after 1 week of vehicle (n=33) or ACY775 (n=26) treated DIO mice was assessed. Area of curve (AOC) analysis for GTT was performed. Blood glucose (mg/dl) levels after 1 week of vehicle (n=17) or ACY775 (n=16) were assessed in treated DIO mice. Insulin tolerance test (ITT) was performed after 2 weeks of vehicle (n=31) or ACY775 (n=21) treatment of DIO mice. Serum insulin (ng/ml) levels were measured after 3 weeks of vehicle (n=22) or ACY775 (n=21) in treated DIO mice. A homeostatic model assessment of insulin resistance (HOMA-IR) was analyzed after 3 weeks of vehicle (n=14) or ACY775 (n=13) treated DIO mice.
Food intake was analyzed hourly until 3:00 am. […] DEXA scans were performed in two different cohorts.
DIO mice then were treated with ricolinostat (50 mg/kg, i.p.) for 3 weeks. Daily body weight (g), daily food intake (g), serum leptin (ng/ml) levels after 3 weeks of vehicle (n=8) or ricolinostat (n=8) treatment, lean mass (g); fat mass and fat percentage (%) after 3 weeks of vehicle (n=16) or ricolinostat (n=17) treatment measured by DEXA scan were determined.
Studies were conducted as described above with reference to ACY775.
DIO mice then were treated with bavarostat (10 mg/kg, i.p.) for 3 weeks and daily body weight (g) of DIO mice treated with Veh (n=9) or bavarostat (n=9) measured during the three weeks of treatment period. Daily food intake (g) during 3 weeks of Veh or bavarostat treatment was also measured.
ACY1083 was administered to DIO mice as described in Example 3.

[4] = tested on: DIO mice; assay: Glucose homeostasis in chronically treated DIO mice (GTT, ITT, insulin, HOMA-IR, liver H&E); type: in vivo; settings: for blood glucose levels / glucose tolerance (GTT): after 1 week; for circulating/serum insulin levels / hepatic steatosis (liver H&E) / insulin resistance (HOMA-IR): after 3 weeks
Method: DIO mice were treated with ACY775 (10 mg/kg/day, i.p.) for 3 weeks. Daily body weight (g) of DIO mice treated with vehicle (n=17) or ACY775 (n=17) during 3 weeks of treatment was determined. Daily food intake (g) during 3 weeks of vehicle or ACY775 treatment was assessed. 24 hours' food intake per mouse during the first week of vehicle or ACY775 treatment was determined. Serum leptin (ng/ml) levels after 3 weeks of vehicle (n=24) or ACY775 (n=24) treatment was assessed. Lean mass (g), fat mass (g) and fat percentage (%) after 3 weeks of vehicle (n=17) or ACY775 (n=17) treatment measured by Dual-energy X-ray absorptiometry (DEXA) scan. DEXA scans were performed in two different cohorts. Glucose tolerance test (GTT) after 1 week of vehicle (n=33) or ACY775 (n=26) treated DIO mice was assessed. Area of curve (AOC) analysis for GTT was performed. Blood glucose (mg/dl) levels after 1 week of vehicle (n=17) or ACY775 (n=16) were assessed in treated DIO mice. Insulin tolerance test (ITT) was performed after 2 weeks of vehicle (n=31) or ACY775 (n=21) treatment of DIO mice. Serum insulin (ng/ml) levels were measured after 3 weeks of vehicle (n=22) or ACY775 (n=21) in treated DIO mice. A homeostatic model assessment of insulin resistance (HOMA-IR) was analyzed after 3 weeks of vehicle (n=14) or ACY775 (n=13) treated DIO mice. […]
Blood glucose (mg/dl) levels were measured after 1 week of vehicle (n=16) or ricolinostat (n=16) treated DIO mice. GTT after 1 week of vehicle (n=17) or ricolinostat (n=16) treatment of DIO mice was assessed. AOC analysis for GTT was performed. ITT after 2 weeks of vehicle (n=17) or ricolinostat (n=16) treated DIG mice was measured. Serum insulin (ng/ml) levels after 3 weeks of vehicle (n=8) or ricolinostat (n=8) treatment were measured in DIO mice. Liver sections from 3 weeks of vehicle or ricolinostat treated DIG mice were stained by H&E.

SMILES: O=C(CCCCCCNC(=O)c1cnc(N(c2ccccc2)c2ccccc2)nc1)NO [Ricolinostat]
- tubulin acetylation (HDAC6 inhibitor activity) in cells [1]: confirmation of Ricolinstat's HDAC6 inhibitory activity
- leptin-stimulated hypothalamic p-STAT3^Tyr705 in inhibitor-pretreated mice [2]: did not significantly increase STAT3^Tyr705 phosphorylation
- body weight effect of chronic treatment ([3]; DIO mice, 3 weeks i.p., bavarostat 10, citarinostat 25, ricolinostat 50 mg/kg): minimal decrease in bodyweight for the first couple of days without creating any meaningful or significant decreases; also recorded: does not reduce body weight
- food intake during chronic treatment ([3]; DIO mice, 3 weeks i.p., bavarostat 10, ricolinostat 50 mg/kg): reduced transitionally during the first 2-3 days of treatment but then rebounded
- insulin tolerance test (ITT) / insulin sensitivity [4]: did not improves glucose tolerance (FIG. 8M) or insulin sensitivity
- blood glucose levels [4]: did not reduce blood glucose levels
- glucose tolerance (GTT) [4]: did not improves glucose tolerance
- circulating/serum insulin levels [4]: did not reduce insulin levels
- hepatic steatosis (liver H&E) [4]: no decrease in the hepatic steatosis

SMILES: O=C(NO)c1cnc(NC2(c3cccc(F)c3)CCCCC2)nc1 [ACY775, 2-[[1-(3-fluorophenyl)cyclohexyl]amino]-N-hydroxy-5-pyrimidinecarboxamide]
- tubulin acetylation (HDAC6 inhibitor activity) in cells [1]: increases tubulin acetylation
- leptin-stimulated hypothalamic p-STAT3^Tyr705 in inhibitor-pretreated mice [2]: increased significantly
- average food intake during the first week vs control ([3]; DIO mice): highly significant reduction
- daily food intake before treatment ([3]; DIO mice): 2.54 ± 0.10 g
- body weight after treatment ([3]; DIO mice): 33.53 ± 1.19 g
- decrease in body weight ([3]; DIO mice): 29.58%±1.79%
- fat mass (DEXA) ([3]; DIO mice): significantly lower
- fat percentage (DEXA) ([3]; DIO mice): significantly lower
- lean mass (DEXA) ([3]; DIO mice): did not alter the lean mass
- circulating/serum leptin levels ([3]; DIO mice): significantly downregulated
- body weight before treatment ([3]; DIO mice): 48.25 ± 0.87 g
- daily food intake under treatment ([3]; DIO mice): 0.85 ± 0.06 g
- food intake and total body fat mass [3]: significant reduction of food intake and total body fat mass
- insulin tolerance test (ITT) / insulin sensitivity [4]: significant difference between ACY775-treated mice and those treated with vehicles
- blood glucose levels [4]: significantly reduced
- glucose tolerance (GTT) [4]: significantly improved glucose tolerance
- circulating/serum insulin levels [4]: significantly reduced the circulating insulin levels
- hepatic steatosis (liver H&E) [4]: almost completely abolished hepatic steatosis
- insulin resistance (HOMA-IR) [4]: significantly reduced the insulin resistance

SMILES: O=C(NO)c1cnc(NC2(c3ccccc3)CC2)nc1 [ACY738]
- tubulin acetylation (HDAC6 inhibitor activity) in cells [1]: inhibits the HDAC6 activity
- leptin-stimulated hypothalamic p-STAT3^Tyr705 in inhibitor-pretreated mice [2]: substantially increased
- average food intake during the first week vs control ([3]; DIO mice): severely reduced
- daily food intake before treatment ([3]; DIO mice): 2.35 ± 0.10 g
- body weight after treatment ([3]; DIO mice): 37.74 ± 1 g
- decrease in body weight ([3]; DIO mice): 20.21%±1.32%
- fat mass (DEXA) ([3]; DIO mice): significantly decreased
- fat percentage (DEXA) ([3]; DIO mice): significantly decreased
- lean mass (DEXA) ([3]; DIO mice): no change in the lean body mass
- circulating/serum leptin levels ([3]; DIO mice): significantly decreased
- body weight before treatment ([3]; DIO mice): 46.43 ± 0.74 g
- daily food intake under treatment ([3]; DIO mice): 1.32 ± 0.05 g
- food intake and total body fat mass [3]: significant reduction of food intake and total body fat mass
- insulin tolerance test (ITT) / insulin sensitivity [4]: improved insulin tolerance
- blood glucose levels [4]: significantly reduced
- glucose tolerance (GTT) [4]: significant improvement of glucose homeostasis
- circulating/serum insulin levels [4]: reduced insulin levels
- hepatic steatosis (liver H&E) [4]: improved hepatic steatosis
- insulin resistance (HOMA-IR) [4]: ameliorated insulin resistance
